Laboratory results taken from the NIST ThermoML archive (doi:10.1021/je060271a).
“And” between values parts separate entries of the source, which are not always exact repeats. Equal values may be shown once.

Conditions: Liquid, Vibrating tube method

CCCC(=O)OCC(COC(=O)CCC)(COC(=O)CCC)COC(=O)CCC [pentaerythritol tetrabutyrate]
Conditions	mass density
283.16 K, 23020 kPa	1072.1 kg/m3
283.16 K, 23036 kPa	1072.1 kg/m3
283.16 K, 23052 kPa	1072.2 kg/m3
283.16 K, 23069 kPa	1072.1 kg/m3
283.16 K, 23089 kPa	1072.1 kg/m3
283.16 K, 23106 kPa	1072.1 kg/m3
283.16 K, 23123 kPa	1072.2 kg/m3
283.16 K, 23269 kPa	1072.2 kg/m3
283.16 K, 23431 kPa	1072.4 kg/m3
283.16 K, 23452 kPa	1072.4 kg/m3
283.16 K, 23468 kPa	1072.3 kg/m3
283.16 K, 23490 kPa	1072.3 kg/m3
283.16 K, 23507 kPa	1072.4 kg/m3
283.16 K, 23524 kPa	1072.5 kg/m3
283.16 K, 23541 kPa	1072.4 kg/m3
283.16 K, 23562 kPa	1072.4 kg/m3
283.16 K, 23580 kPa	1072.5 kg/m3
283.16 K, 23601 kPa	1072.4 kg/m3
283.16 K, 23619 kPa	1072.4 kg/m3
283.16 K, 23636 kPa	1072.4 kg/m3
283.16 K, 23657 kPa	1072.3 kg/m3
283.16 K, 23675 kPa	1072.4 kg/m3
283.16 K, 23692 kPa	1072.5 kg/m3
283.16 K, 23710 kPa	1072.6 kg/m3
283.16 K, 23767 kPa	1072.5 kg/m3
283.16 K, 23788 kPa	1072.6 kg/m3
283.16 K, 23806 kPa	1072.5 kg/m3
283.16 K, 23824 kPa	1072.5 kg/m3
283.16 K, 23846 kPa	1072.6 kg/m3
283.16 K, 23864 kPa	1072.6 kg/m3
283.16 K, 24034 kPa	1072.7 kg/m3
283.16 K, 24056 kPa	1072.8 kg/m3
283.16 K, 24075 kPa	1072.7 kg/m3
283.16 K, 24094 kPa	1072.7 kg/m3
283.16 K, 24114 kPa	1072.6 kg/m3
283.16 K, 24135 kPa	1072.6 kg/m3
283.16 K, 24154 kPa	1072.8 kg/m3
283.16 K, 24172 kPa	1072.7 kg/m3
283.16 K, 24191 kPa	1072.6 kg/m3
283.16 K, 24213 kPa	1072.7 kg/m3
283.16 K, 24231 kPa	1072.8 kg/m3
283.16 K, 24254 kPa	1072.9 kg/m3
283.16 K, 24332 kPa	1072.7 kg/m3
283.16 K, 24351 kPa	1072.9 kg/m3
283.16 K, 24370 kPa	1072.7 kg/m3
283.16 K, 24392 kPa	1072.7 kg/m3
283.16 K, 24412 kPa	1072.8 kg/m3
283.16 K, 24431 kPa	1072.9 kg/m3
283.16 K, 24453 kPa	1072.9 kg/m3
283.16 K, 24472 kPa	1072.9 kg/m3
283.16 K, 24494 kPa	1072.9 kg/m3
283.16 K, 24514 kPa	1072.9 kg/m3
283.16 K, 24532 kPa	1072.9 kg/m3
283.16 K, 24551 kPa	1072.9 kg/m3
283.16 K, 24574 kPa	1072.9 kg/m3
283.16 K, 24593 kPa	1072.9 kg/m3
283.16 K, 24613 kPa	1073 kg/m3
283.16 K, 24636 kPa	1072.9 kg/m3
283.16 K, 24656 kPa	1073 kg/m3
283.16 K, 24989 kPa	1073.1 kg/m3
283.16 K, 25506 kPa	1073.5 kg/m3
283.16 K, 25531 kPa	1073.5 kg/m3
283.16 K, 25552 kPa	1073.5 kg/m3
283.16 K, 25573 kPa	1073.4 kg/m3
283.16 K, 26529 kPa	1073.9 kg/m3
283.16 K, 26552 kPa	1074 kg/m3
283.16 K, 26575 kPa	1074 kg/m3
283.16 K, 26603 kPa	1073.9 kg/m3
283.16 K, 26626 kPa	1074 kg/m3
283.16 K, 26649 kPa	1074 kg/m3
283.16 K, 26676 kPa	1073.9 kg/m3
283.16 K, 26698 kPa	1074 kg/m3
283.16 K, 29351 kPa	1075.5 kg/m3
283.16 K, 29380 kPa	1075.4 kg/m3
283.16 K, 29409 kPa	1075.5 kg/m3
283.16 K, 33957 kPa	1077.9 kg/m3
283.16 K, 34005 kPa	1077.8 kg/m3
283.16 K, 34045 kPa	1078 kg/m3
283.16 K, 34086 kPa	1077.9 kg/m3
283.16 K, 34136 kPa	1078 kg/m3
283.16 K, 34523 kPa	1078 kg/m3
283.16 K, 34524 kPa	1078.1 kg/m3
283.16 K, 34525 kPa	1078.1 kg/m3 and 1078 kg/m3
283.16 K, 34526 kPa	1078.2 kg/m3 and 1078.1 kg/m3
283.16 K, 34527 kPa	1078.1 kg/m3 and 1078.2 kg/m3
283.16 K, 34528 kPa	1078.2 kg/m3 and 1078.1 kg/m3
283.16 K, 34529 kPa	1078.1 kg/m3
283.17 K, 5010.1 kPa	1062 kg/m3
283.17 K, 5010.7 kPa	1062.1 kg/m3
283.17 K, 5010.8 kPa	1062 kg/m3
283.17 K, 5011 kPa	1062 kg/m3
283.17 K, 5011.2 kPa	1062 kg/m3 and 1062.1 kg/m3
283.17 K, 5011.5 kPa	1062.1 kg/m3
283.17 K, 5026.1 kPa	1062 kg/m3
283.17 K, 5026.2 kPa	1061.9 kg/m3
283.17 K, 5026.4 kPa	1062 kg/m3
283.17 K, 5482.5 kPa	1062.3 kg/m3
283.17 K, 5493.4 kPa	1062.3 kg/m3
283.17 K, 5500 kPa	1062.3 kg/m3
283.17 K, 5505.1 kPa	1062.3 kg/m3
283.17 K, 6286.6 kPa	1062.7 kg/m3
283.17 K, 6293.2 kPa	1062.8 kg/m3
283.17 K, 34163 kPa	1077.8 kg/m3
283.17 K, 34186 kPa	1077.9 kg/m3
283.17 K, 34206 kPa	1078 kg/m3
283.17 K, 34224 kPa	1077.9 kg/m3
283.17 K, 34234 kPa	1077.9 kg/m3
283.17 K, 34519 kPa	1078.2 kg/m3 and 1078.1 kg/m3
283.17 K, 34520 kPa	1078.1 kg/m3
283.17 K, 34521 kPa	1078.2 kg/m3 and 1078.1 kg/m3
283.17 K, 34522 kPa	1078 kg/m3 and 1078.1 kg/m3
283.17 K, 34523 kPa	1078.2 kg/m3
283.17 K, 34524 kPa	1078.2 kg/m3
303.15 K, 13139 kPa	1050.5 kg/m3
303.15 K, 20352 kPa	1054.9 kg/m3
303.15 K, 20397 kPa	1055 kg/m3
303.15 K, 20435 kPa	1055.1 kg/m3
303.15 K, 21135 kPa	1055.3 kg/m3
303.15 K, 21185 kPa	1055.4 kg/m3
303.15 K, 21226 kPa	1055.4 kg/m3
303.15 K, 21276 kPa	1055.5 kg/m3
303.15 K, 21416 kPa	1055.6 kg/m3
303.15 K, 32925 kPa	1062.1 kg/m3
303.15 K, 32967 kPa	1062.1 kg/m3
303.15 K, 33008 kPa	1062.1 kg/m3
303.15 K, 33049 kPa	1062.2 kg/m3
303.16 K, 104.1 kPa	1042.1 kg/m3
303.16 K, 104.5 kPa	1042.2 kg/m3
303.16 K, 105.2 kPa	1042.1 kg/m3
303.16 K, 105.7 kPa	1042.2 kg/m3
303.16 K, 106 kPa	1042.3 kg/m3
303.16 K, 106.2 kPa	1042.2 kg/m3
303.16 K, 106.4 kPa	1042.2 kg/m3
303.16 K, 106.7 kPa	1042.3 kg/m3
303.16 K, 108.3 kPa	1042.3 kg/m3
303.16 K, 112.7 kPa	1042.2 kg/m3
303.16 K, 117.7 kPa	1042.3 kg/m3
303.16 K, 124.5 kPa	1042.2 kg/m3
303.16 K, 132.1 kPa	1042.1 kg/m3
303.16 K, 137.5 kPa	1042.1 kg/m3
303.16 K, 143.9 kPa	1042.3 kg/m3
303.16 K, 150.9 kPa	1042.3 kg/m3
303.16 K, 159.9 kPa	1042.2 kg/m3
303.16 K, 169 kPa	1042.2 kg/m3
303.16 K, 180.8 kPa	1042.3 kg/m3
303.16 K, 192.3 kPa	1042.2 kg/m3
303.16 K, 204.8 kPa	1042.2 kg/m3
